# Measured values taken from PubChem BioAssay (NCI).
#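 96-well plates; 48 h exposure; 5 concentrations. Endpoints by linear interpolation between flanking doses. Not reached: highest tested concentration assigned. Abbreviation: GI50, concentration required for 50% inhibition of growth. TGI marks complete inhibition of growth.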
# How the values were obtained:
# Assay in all cases: NCI tumour cell line growth inhibition, 48 h
# MDA-MB-468 breast = system: MDA-MB-468 breast
# 786-0 renal = system: 786-0 renal
# IGROV1 ovarian = system: IGROV1 ovarian
# HT29 colon = system: HT29 colon
# SNB-19 CNS = system: SNB-19 CNS
# LOX IMVI melanoma = system: LOX IMVI melanoma
# SF-295 CNS = system: SF-295 CNS
# HCT-116 colon = system: HCT-116 colon
# A549 NSCLC = system: A549 NSCLC
# SK-OV-3 ovarian = system: SK-OV-3 ovarian
# OVCAR-5 ovarian = system: OVCAR-5 ovarian
# HL-60(TB) leukemia = system: HL-60(TB) leukemia
# KM12 colon = system: KM12 colon
# UACC-62 melanoma = system: UACC-62 melanoma
# OVCAR-3 ovarian = system: OVCAR-3 ovarian
# SW-620 colon = system: SW-620 colon
# NCI-H522 lung = system: NCI-H522 lung
# HCC-2998 colon = system: HCC-2998 colon
# OVCAR-4 ovarian = system: OVCAR-4 ovarian
# RXF 393 renal = system: RXF 393 renal
# SNB-75 CNS = system: SNB-75 CNS
# T-47D breast = system: T-47D breast
# PC-3 prostate = system: PC-3 prostate
# RPMI-8226 leukemia = system: RPMI-8226 leukemia
# UO-31 renal = system: UO-31 renal
# NCI-H460 lung = system: NCI-H460 lung
# MDA-MB-231 breast = system: MDA-MB-231 breast
# TK-10 renal = system: TK-10 renal
# U251 CNS = system: U251 CNS
# CAKI-1 renal = system: CAKI-1 renal
# SR leukemia = system: SR leukemia
# MALME-3M melanoma = system: MALME-3M melanoma
# SF-539 CNS = system: SF-539 CNS
# HOP-62 NSCLC = system: HOP-62 NSCLC
# SF-268 CNS = system: SF-268 CNS
# NCI-H226 lung = system: NCI-H226 lung
# MCF7 breast = system: MCF7 breast
# MDA-MB-435 = system: MDA-MB-435
# CCRF-CEM leukemia = system: CCRF-CEM leukemia
# SK-MEL-2 melanoma = system: SK-MEL-2 melanoma
# K-562 leukemia = system: K-562 leukemia
# HCT-15 colon = system: HCT-15 colon
# SK-MEL-28 melanoma = system: SK-MEL-28 melanoma
# DU-145 prostate = system: DU-145 prostate
# SK-MEL-5 melanoma = system: SK-MEL-5 melanoma
# COLO 205 colon = system: COLO 205 colon
# A498 renal = system: A498 renal
# HOP-92 NSCLC = system: HOP-92 NSCLC
# NCI-H23 lung = system: NCI-H23 lung
# M14 melanoma = system: M14 melanoma
# EKVX NSCLC = system: EKVX NSCLC
# UACC-257 melanoma = system: UACC-257 melanoma
# MOLT-4 leukemia = system: MOLT-4 leukemia
# HS 578T breast = system: HS 578T breast
# BT-549 breast = system: BT-549 breast
# SN12C renal = system: SN12C renal
# ACHN renal = system: ACHN renal
# OVCAR-8 ovarian = system: OVCAR-8 ovarian
structure (smiles),measurement,setting,value
C[C@H](O)CNc1cc(-c2[nH]c3cccnc3c2-c2ccc(F)cc2)ccn1,GI50,MDA-MB-468 breast,7.54 µM
same,TGI,MDA-MB-468 breast,> 25 µM
Cc1ccc(NCCN2CCCCC2)c2c(=O)c3ccccc3sc12,GI50,MDA-MB-468 breast,2.38 µM
same,TGI,MDA-MB-468 breast,5.19 µM
CCN(CC)CCNC(=O)c1cn2ncnc(Oc3ccc(NC(=O)Nc4ccc(Cl)c(C(F)(F)F)c4)cc3)c2c1C,GI50,MDA-MB-468 breast,1.67 µM
same,TGI,MDA-MB-468 breast,3.29 µM
CN(C)c1ccc(-c2c(NC(C)(C)C)nc3c(OCCc4ccccc4)cccn23)cc1,GI50,MDA-MB-468 breast,2.29 µM
same,TGI,MDA-MB-468 breast,6.28 µM
CCOC(=O)c1ccc2[nH]c(O)c(C(=Nc3ccc(N(C)C(=O)CN4CCN(C)CC4)cc3)c3ccccc3)c2c1,GI50,MDA-MB-468 breast,0.827 µM
same,TGI,MDA-MB-468 breast,2.29 µM
COC(=O)C1CCC(NC(=O)c2csc([C@@H](C[C@H](C(C)C)N(C)C(=O)[C@@H](NC(=O)[C@H]3CCCCN3C)C(C)C)OC(C)=O)n2)CC1 (stereo partly drawn),GI50,MDA-MB-468 breast,0.00245 µM
same,TGI,MDA-MB-468 breast,0.00683 µM
CCOC(=O)C1=C(N)CCC1C (stereo not drawn),GI50,MDA-MB-468 breast,> 100 µM
same,TGI,MDA-MB-468 breast,> 100 µM
Cc1cc(C)c(C#N)c(SCC(=O)c2sc3c(C#N)c(C)cc(C)[n+]3c2[O-])n1,GI50,MDA-MB-468 breast,0.266 µM
O=C1c2ccccc2C(=O)c2c1ccc(C(Br)Br)c2Cl,GI50,MDA-MB-468 breast,2 µM
same,TGI,MDA-MB-468 breast,4.54 µM
Cc1nc(Nc2nc(C)c3ccc(OCCN4CCOCC4)cc3n2)[nH]c(=O)c1C,GI50,786-0 renal,3.75 µM
same,TGI,786-0 renal,18.2 µM
same,GI50,IGROV1 ovarian,3.1 µM
same,TGI,IGROV1 ovarian,12.6 µM
same,GI50,HT29 colon,3.01 µM
same,TGI,HT29 colon,9.94 µM
same,GI50,SNB-19 CNS,4.66 µM
same,TGI,SNB-19 CNS,24.6 µM
same,GI50,LOX IMVI melanoma,2.39 µM
same,TGI,LOX IMVI melanoma,6.72 µM
same,GI50,SF-295 CNS,4.43 µM
same,TGI,SF-295 CNS,57.9 µM
same,GI50,HCT-116 colon,3.09 µM
same,TGI,HCT-116 colon,12.3 µM
same,GI50,A549 NSCLC,3.37 µM
same,TGI,A549 NSCLC,15.4 µM
same,GI50,SK-OV-3 ovarian,4.67 µM
same,TGI,SK-OV-3 ovarian,24.8 µM
same,GI50,OVCAR-5 ovarian,4.22 µM
same,TGI,OVCAR-5 ovarian,27.5 µM
same,GI50,HL-60(TB) leukemia,2.27 µM
same,TGI,HL-60(TB) leukemia,6.83 µM
same,GI50,KM12 colon,3.14 µM
same,TGI,KM12 colon,10.8 µM
same,GI50,UACC-62 melanoma,2.56 µM
same,TGI,UACC-62 melanoma,8.19 µM
same,GI50,OVCAR-3 ovarian,3.12 µM
same,TGI,OVCAR-3 ovarian,13.7 µM
same,GI50,SW-620 colon,3.39 µM
same,TGI,SW-620 colon,20.7 µM
same,GI50,NCI-H522 lung,2.45 µM
same,TGI,NCI-H522 lung,8.57 µM
same,GI50,HCC-2998 colon,3.1 µM
same,TGI,HCC-2998 colon,5.43 µM
same,GI50,OVCAR-4 ovarian,2.54 µM
same,TGI,OVCAR-4 ovarian,7.74 µM
same,GI50,RXF 393 renal,1.95 µM
same,TGI,RXF 393 renal,4.47 µM
same,GI50,SNB-75 CNS,1.92 µM
same,TGI,SNB-75 CNS,8.83 µM
same,GI50,T-47D breast,4.36 µM
same,TGI,T-47D breast,43.5 µM
same,GI50,PC-3 prostate,4.04 µM
same,TGI,PC-3 prostate,27 µM
same,GI50,RPMI-8226 leukemia,2.79 µM
same,TGI,RPMI-8226 leukemia,8.33 µM
same,GI50,UO-31 renal,2.95 µM
same,TGI,UO-31 renal,15.2 µM
same,GI50,NCI-H460 lung,2.94 µM
same,TGI,NCI-H460 lung,9.12 µM
same,GI50,MDA-MB-231 breast,2.45 µM
same,TGI,MDA-MB-231 breast,6.05 µM
same,GI50,TK-10 renal,2.99 µM
same,TGI,TK-10 renal,22.4 µM
same,GI50,U251 CNS,4.16 µM
same,TGI,U251 CNS,51.4 µM
same,GI50,CAKI-1 renal,3.66 µM
same,TGI,CAKI-1 renal,24.2 µM
same,GI50,SR leukemia,3.03 µM
same,TGI,SR leukemia,10.7 µM
same,GI50,MALME-3M melanoma,2.38 µM
same,TGI,MALME-3M melanoma,9.06 µM
same,GI50,SF-539 CNS,2.82 µM
same,TGI,SF-539 CNS,8.86 µM
same,GI50,HOP-62 NSCLC,4.59 µM
same,TGI,HOP-62 NSCLC,20.4 µM
same,GI50,SF-268 CNS,3.58 µM
same,TGI,SF-268 CNS,19 µM
same,GI50,NCI-H226 lung,2.86 µM
same,TGI,NCI-H226 lung,11.1 µM
same,GI50,MCF7 breast,4.15 µM
same,TGI,MCF7 breast,> 100 µM
same,GI50,MDA-MB-435,4.28 µM
same,TGI,MDA-MB-435,15.8 µM
same,GI50,CCRF-CEM leukemia,3.26 µM
same,TGI,CCRF-CEM leukemia,13.8 µM
same,GI50,SK-MEL-2 melanoma,2.03 µM
same,TGI,SK-MEL-2 melanoma,5.13 µM
same,GI50,K-562 leukemia,3.31 µM
same,TGI,K-562 leukemia,27.4 µM
same,GI50,HCT-15 colon,3.15 µM
same,TGI,HCT-15 colon,18.8 µM
same,GI50,SK-MEL-28 melanoma,3.64 µM
same,TGI,SK-MEL-28 melanoma,14.3 µM
same,GI50,DU-145 prostate,2.94 µM
same,TGI,DU-145 prostate,9.03 µM
same,GI50,SK-MEL-5 melanoma,2.29 µM
same,TGI,SK-MEL-5 melanoma,6.87 µM
same,GI50,COLO 205 colon,2.25 µM
same,TGI,COLO 205 colon,5.58 µM
same,GI50,A498 renal,2.16 µM
same,TGI,A498 renal,6.52 µM
same,GI50,HOP-92 NSCLC,2.91 µM
same,TGI,HOP-92 NSCLC,9.9 µM
same,GI50,NCI-H23 lung,2.53 µM
same,TGI,NCI-H23 lung,5.91 µM
same,GI50,M14 melanoma,4.36 µM
same,TGI,M14 melanoma,17.4 µM
same,GI50,EKVX NSCLC,4.15 µM
same,TGI,EKVX NSCLC,26.7 µM
same,GI50,UACC-257 melanoma,4.03 µM
same,TGI,UACC-257 melanoma,25.9 µM
same,GI50,MDA-MB-468 breast,1.72 µM
same,TGI,MDA-MB-468 breast,3.8 µM
same,GI50,MOLT-4 leukemia,3.05 µM
same,TGI,MOLT-4 leukemia,22 µM
same,GI50,HS 578T breast,3.79 µM
same,TGI,HS 578T breast,23.6 µM
same,GI50,BT-549 breast,3.55 µM
same,TGI,BT-549 breast,12.1 µM
same,GI50,SN12C renal,3.46 µM
same,TGI,SN12C renal,19.5 µM
same,GI50,ACHN renal,3.85 µM
same,TGI,ACHN renal,19.4 µM
same,GI50,OVCAR-8 ovarian,4.04 µM
same,TGI,OVCAR-8 ovarian,17.9 µM
